Read-outs that look alike come from different tables or passages of the source.
Test system: Tb927.8.6290 overexpressing cell lines (A258P)
Assay: Drug sensitivity, line overexpressing Tb927.8.6290 A258P
Assay type: cell-based, T. b. brucei
Settings: for EC50: Trypanosoma brucei
Procedure: Drug sensitivity assays were carried out with BSF T. b. brucei “single marker” S427 or BSF T. b. brucei, Lister 427, MiTat 1.2, clone 221a 2T1 cells,[45] cells grown at 37 °C with 5% CO2 in an HMI-9T medium[46] as previously described.[47] 2T1 cells were initially maintained with 1 μg mL^–1 puromycin and 1 μg mL^–1 phleomycin prior to transfection or 2.5 μg mL^–1 hygromycin and 1 μg mL^–1 phleomycin after transfection. Induction of overexpression was achieved by the addition of 1 μg mL^–1 tetracycline to the culture medium.
The following primers were used to PCR amplify Tb927.8.6290 from genomic DNA isolated from wild-type and 38-resistant trypanosomes 5′-[…]-3′ (PacI site in bold) and 5′-[…]-3′ (BamHI site in bold). The PCR products (1272 bp) were then cloned into the pRPa plasmid.[53] The accuracy of the plasmid constructs was confirmed by in-house Sanger sequencing and then linearized with AscI prior to transfection. The linearized plasmids were introduced into 2T1 T. b. brucei cells following removal of puromycin from the media and selected with 2.5 μg mL^–1 hygromycin and 1 μg mL^–1 phleomycin. Two independent clones were selected for further studies.

CC(C)(O)CC(=O)c1sc(Nc2ccc(F)c(F)c2)nc1N [Compound 38, 1-(4-Amino-2-((3,4-difluorophenyl)amino)thiazol-5-yl)-3-hydroxy-3-methylbutan-1-one]
EC50 (read-out: EC50, A258P +TET): 12 ± 0.25 µM | EC50 (read-out: EC50, A258P –TET): 0.31 ± 0.009 µM | fold shift, A258P (−TET vs +TET EC50, in brackets): 40

From publication PMC10350920, “Development of a 2,4-Diaminothiazole Series for the Treatment of Human African Trypanosomiasis Highlights the Importance of Static–Cidal Screening of Analogues” (Journal of Medicinal Chemistry, 2023)
